Two compounds from ChEMBL document CHEMBL1151108, “Plant antimutagenic agents, 1. General bioassay and isolation procedures” (J Nat Prod, 1988) can be followed below.

Data set [1] deals with Salmonella typhimurium. Briefly: Toxicity in Salmonella Typhimurium TA98 at 300 ug/plate in presence of liver S9 fraction by Ames test. The class given is organism-based. The settings on record: salmonella enterica subsp. enterica serovar typhimurium.
Data set [2] has as its system Salmonella typhimurium. Briefly: Toxicity in Salmonella Typhimurium TA98 at 150 ug/plate in presence of liver S9 fraction by Ames test. The class given is organism-based. The settings on record: salmonella enterica subsp. enterica serovar typhimurium. A general note: The Ames test uses bacterial strains that need an amino acid and regain growth without it when mutated back.

Take `C=C1CCC[C@]2(C)C[C@H]3OC(=O)[C@@H](C)[C@H]3C[C@@H]12` [DIHYDROISOALANTOLACTONE]: the Activity result in data set [1] and in data set [2] was “Non-toxic” each time.

With `C=C1C(=O)O[C@@H]2C[C@@]3(C)CCCC(=C)[C@@H]3C[C@H]12` [ISOALANTOLACTONE], the Activity result in data set [1] and in data set [2] was “Toxic” each time.
